Molecular target: T1, YFP-TRPV6 (Homo sapiens, UniProt Q9H1D0)
T1 construct: expressed in transfected cells; host or cells: HEK293 (DSMZ), transient (TransFectin)
T1 sequence (Q9H1D0 41-765 limits assumed): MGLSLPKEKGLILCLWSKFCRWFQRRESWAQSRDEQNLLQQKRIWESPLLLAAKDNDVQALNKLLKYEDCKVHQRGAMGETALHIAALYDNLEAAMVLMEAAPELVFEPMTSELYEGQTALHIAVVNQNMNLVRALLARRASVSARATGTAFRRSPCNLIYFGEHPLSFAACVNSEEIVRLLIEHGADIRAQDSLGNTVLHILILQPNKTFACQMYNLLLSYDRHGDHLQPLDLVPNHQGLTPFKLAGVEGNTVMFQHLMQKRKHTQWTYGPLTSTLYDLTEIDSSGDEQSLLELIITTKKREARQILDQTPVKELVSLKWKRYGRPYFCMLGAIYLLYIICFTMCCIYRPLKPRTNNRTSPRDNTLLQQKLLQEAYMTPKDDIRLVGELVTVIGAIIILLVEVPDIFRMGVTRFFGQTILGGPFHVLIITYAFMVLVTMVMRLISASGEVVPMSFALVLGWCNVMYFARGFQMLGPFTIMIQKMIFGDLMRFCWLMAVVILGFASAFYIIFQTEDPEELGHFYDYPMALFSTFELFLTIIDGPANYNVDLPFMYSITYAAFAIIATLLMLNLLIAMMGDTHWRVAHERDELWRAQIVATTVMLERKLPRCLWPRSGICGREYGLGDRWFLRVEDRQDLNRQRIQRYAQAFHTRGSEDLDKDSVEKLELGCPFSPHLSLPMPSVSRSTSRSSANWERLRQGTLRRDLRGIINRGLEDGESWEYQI
Assay: Whole-cell electrophysiology on YFP-TRPV6 transfected HEK293 cells
Format: cell-based
Details: 10 mM Ca2+, read-out: inhibition of TRPV6 current densities
Method: Electrophysiological experiments on YFP-TRPV6 transiently transfected HEK293 cells confirmed the activity of 39 on TRPV6. Initially, 10 mM Ca^2+ solution was applied and after the currents reached a plateau, the inhibitors at 0.1 and 10 μM were added. […] In comparison to the previously described 1, the inhibition by 39 occurred at a slower rate and was less pronounced.
HEK293 cells (DSMZ, Germany) were cultivated in DMEM medium containing 10% FCS, 100 μg/ml streptomycin and 100 U/ml penicillin. 24 h before the experiments, a transient transfection with the peYFP-C1 TRPV6 plasmid was performed by utilising TransFectinTM Lipid Reagent (Bio-Rad).
Electrophysiological experiments were conducted at room temperature (20 - 24°C) in the whole-cell configuration with an Ag/AgCl reference electrode. Voltage ramps over a time period of 200 ms from -90 to +90 mV were performed every 5 s with a holding potential of 50 mV. The internal pipette solution consisted of 145 mM Cs-methanesulfonate, 8 mM NaCl, 5 mM MgCl2, 10 mM HEPES and 20 mM EGTA, pH 7.2. The extra cellular solution (10 mM Ca2+) contained: 145 mM NaCl, 5 mM CsCl, 1 mM MgCl 2, 10 mM HEPES, 10 mM glucose and 10 mM CaCl 2, pH 7.4. The leak-correction of the currents were conducted by subtraction of the remaining leak currents after La 3+ bock. The liquid junction potential was determined as 12 mV, though applied voltages were not corrected. […]

O=c1ccc(CN2CCN([C@H]3CC[C@@](O)(c4cccc(C(F)(F)F)c4)CC3)CC2)c[nH]1 [compound 39]
inhibition at 0.1 µM (0.1 μM): 30.8 ± 5.1%
inhibition at 10 µM (10 μM): 88.2 ± 2%
